Results taken from patent US20020128231A1 (priority 2000, published 2002).

Experiments:
[1] = test system: MDR1-expressing NIH 3T3 cells; assay: Cytotoxicity (MTT) assay: modulation of drug cytotoxicity in multidrug resistant cells; settings: compound 5 μM; 50 nM doxorubicin; 72 hours; MTT
Procedure: Cytotoxicity assays were performed with many of the compounds of Formula I to verify their usefulness as inhibitors of P-gp.
Parental NIH3T3 Swiss mouse embryo cell line was obtained from American Type Culture Collection and was grown in Dulbecco's Modified Eagles Medium supplemented with 4.5 g/L glucose, 10% fetal bovine serum, 2 mM L-glutamine, and 0.01 mg/ml gentamicin. […] All cells were maintained in a humidified atmosphere with 5% CO2 at 37° C.
Parental and MDR1-expressing NIH 3T3 cells were plated at a density of 2.5-3.0×10^3 cells/well in 96-well microtiter plates and were exposed to 50 nM of doxoriubicin, 7.5 nM vinblastine, 75 nM colchicine or 300 nM paclitaxel for 72 hours. Cell viability was determined with the colorimetric MTT (3-(4,5-dimethylthiazol-2-yl)-2,5-diphenyl tetrazolium) assay as previously described (Mosmann T., J. Immunol. Methods, 65: 55-63 (1983); Hansen M. B. et al., J. Immunol. Methods, 119: 203-210 (1989)) and the absorbance was measured at 570 nm.

P-glycoprotein = P-glycoprotein (Homo sapiens, UniProt P08183); assay: Rhodamine 123 transport assay across HCT-8 cell monolayers; settings: for inhibition at 10 μM: human, HCT-8 cell monolayers in Transwell dishes, probe Rhodamine 123 (15 μM)
Procedure: The human ileocecal adenocarcinoma cell line HCT-8 was grown in RPMI-1640 medium supplemented with 10% horse serum, 1 mM sodium pyruvate and 0.01 mg/ml gentamicin. All cells were maintained in a humidified atmosphere with 5% CO2 at 37° C.
Rhodamine 123 transport was examined as previously described (Hunter J. et al., Simmons, Br. J. Cancer, 64: 437444 (1991); Kim A. E. et al., J. Pharm. Exp. Ther., 286: 1439-1445 (1998)) using HCT-8 cells. Particularly, cells were grown in 6 well Corning Transwell dishes until a tight monolayer was formed. Rh123 was added at a final concentration of 15 μM to the basal or apical compartments and 200 μl samples were taken at the indicated times from the opposite chamber. Fluorescence of Rh123 in the media samples was measured using a fluorescence plate reader with an excitation wavelength of 485 nm and an emission wavelength of 530 nm.

[2] = compound 10 μM, Rh123 15 μM, HCT-8 cells
[3] = % Inhibition of R123 Transport, compound 10 μM, Rh123 15 μM, HCT-8 cells

Sequence of P-glycoprotein (P08183 whole entry): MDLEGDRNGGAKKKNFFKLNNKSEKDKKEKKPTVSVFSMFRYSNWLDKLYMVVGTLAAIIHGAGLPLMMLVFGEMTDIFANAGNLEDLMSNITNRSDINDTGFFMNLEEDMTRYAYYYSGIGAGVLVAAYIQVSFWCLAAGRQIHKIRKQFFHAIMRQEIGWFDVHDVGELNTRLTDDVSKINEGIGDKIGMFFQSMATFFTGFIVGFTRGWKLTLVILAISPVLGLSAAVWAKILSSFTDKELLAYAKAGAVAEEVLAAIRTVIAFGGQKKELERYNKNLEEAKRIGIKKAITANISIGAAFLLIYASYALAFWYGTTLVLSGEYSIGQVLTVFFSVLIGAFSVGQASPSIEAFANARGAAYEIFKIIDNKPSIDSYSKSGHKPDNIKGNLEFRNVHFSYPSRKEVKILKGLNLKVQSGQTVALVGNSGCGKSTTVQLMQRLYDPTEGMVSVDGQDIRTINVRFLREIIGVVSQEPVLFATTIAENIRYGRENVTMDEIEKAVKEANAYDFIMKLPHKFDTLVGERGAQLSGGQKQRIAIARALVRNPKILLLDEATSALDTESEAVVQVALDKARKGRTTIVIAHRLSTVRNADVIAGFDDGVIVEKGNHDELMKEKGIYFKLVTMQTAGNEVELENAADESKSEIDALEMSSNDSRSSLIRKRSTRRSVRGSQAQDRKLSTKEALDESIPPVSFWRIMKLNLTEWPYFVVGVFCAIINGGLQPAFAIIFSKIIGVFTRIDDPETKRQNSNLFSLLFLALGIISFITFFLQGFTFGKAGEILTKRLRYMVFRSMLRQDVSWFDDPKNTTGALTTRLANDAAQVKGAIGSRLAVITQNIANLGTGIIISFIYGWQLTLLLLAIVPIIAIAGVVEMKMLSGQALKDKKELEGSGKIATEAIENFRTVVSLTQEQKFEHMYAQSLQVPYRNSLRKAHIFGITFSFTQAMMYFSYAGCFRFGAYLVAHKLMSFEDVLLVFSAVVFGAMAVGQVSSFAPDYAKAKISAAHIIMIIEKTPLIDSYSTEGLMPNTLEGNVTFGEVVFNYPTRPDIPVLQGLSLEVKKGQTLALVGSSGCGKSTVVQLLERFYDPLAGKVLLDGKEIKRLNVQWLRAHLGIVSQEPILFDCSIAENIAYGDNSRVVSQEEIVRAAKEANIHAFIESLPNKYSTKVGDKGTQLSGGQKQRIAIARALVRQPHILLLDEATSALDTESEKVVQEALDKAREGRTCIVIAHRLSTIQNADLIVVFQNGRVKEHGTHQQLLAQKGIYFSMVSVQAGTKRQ

COCC1C(CCN2CCC(Cc3ccccc3)CC2)c2cc(OC)c(OC)cc2C1c1ccc(OC)c(OC)c1 (stereo not shown)
Modulation of Drug Resistance (percentage increase in doxorubicin cytotoxicity in the presence of the compounds versus in their absence) [1]: 73.65%
inhibition at 10 μM (P-glycoprotein): 88.9%

2-{3-(3,4-dimethoxyphenyl)-5,6-dimethoxy-2-[4-(4-nitrophenyl)-piperazin-1-carbonyl]-indan-1-yl}-1-[4-(4-nitrophenyl)-1-yl]-ethanone [AV-196]
Modulation of Drug Resistance (percentage increase in doxorubicin cytotoxicity in the presence of the compounds versus in their absence) [1]: 41.47%
% Inhibition of R123 Transport (P-glycoprotein; [2]): 64.4%

CCCOc1ccc(C2c3cc(OCCC)c(OC)cc3C(CC(=O)N3CCN(c4ccccc4OCC)CC3)C2C(=O)N2CCN(c3ccccc3OCC)CC2)cc1OC (single isomer, unassigned) [AV-239-1]
Modulation of Drug Resistance (percentage increase in doxorubicin cytotoxicity in the presence of the compounds versus in their absence) [1]: 55.3%
% Inhibition of R123 Transport (P-glycoprotein; [2]): 90.10%

CCCOc1ccc(C2c3cc(OCCC)c(OC)cc3C(CC(=O)N3CCN(c4ccccc4OCC)CC3)C2C(=O)N2CCN(c3ccccc3OCC)CC2)cc1OC (single isomer, unassigned) [AV-239-2]
Modulation of Drug Resistance (percentage increase in doxorubicin cytotoxicity in the presence of the compounds versus in their absence) [1]: 60%
% Inhibition of R123 Transport (P-glycoprotein; [2]): 91.38%

COc1cc(C2c3cc(O)c(OC)cc3C(CC(=O)N3CCC(Cc4ccccc4)CC3)C2C(=O)N2CCC(Cc3ccccc3)CC2)ccc1O (single isomer, unassigned) [AV-251-1]
Modulation of Drug Resistance (percentage increase in doxorubicin cytotoxicity in the presence of the compounds versus in their absence) [1]: −6.9%
% Inhibition of R123 Transport (P-glycoprotein; [2]): 79.26%

COc1cc(C2c3cc(O)c(OC)cc3C(CC(=O)N3CCC(Cc4ccccc4)CC3)C2C(=O)N2CCC(Cc3ccccc3)CC2)ccc1O (single isomer, unassigned) [AV-251-2]
Modulation of Drug Resistance (percentage increase in doxorubicin cytotoxicity in the presence of the compounds versus in their absence) [1]: 2.4%
% Inhibition of R123 Transport (P-glycoprotein; [2]): 75.44%

CCOc1ccccc1N1CCN(C(=O)CC2c3cc4c(cc3C(c3ccc5c(c3)OCO5)C2C(=O)N2CCN(c3ccccc3OCC)CC2)OCO4)CC1 (single isomer, unassigned) [AV-258-1, 2-{7-benzo[1,3]dioxol-5-yl-6-[4-(2-ethoxy-phenyl)-piperazin-1-carbonyl]-6,7-dihydro-5H-indeno[5,6-d][1,3]dioxol-5-yl}-1-[4-(2-ethoxy-phenyl)-piperazin-1-yl]-ethanone]
Modulation of Drug Resistance (percentage increase in doxorubicin cytotoxicity in the presence of the compounds versus in their absence) [1]: 7.9%
inhibition at 10 μM (P-glycoprotein; [3]): 69.9%

CCOc1ccccc1N1CCN(C(=O)CC2c3cc4c(cc3C(c3ccc5c(c3)OCO5)C2C(=O)N2CCN(c3ccccc3OCC)CC2)OCO4)CC1 (single isomer, unassigned) [AV-258-2, 2-{7-benzo[1,3]dioxol-5-yl-6-[4-(2-ethoxy-phenyl)-piperazin-1-carbonyl]-6,7-dihydro-5H-indeno[5,6-d][1,3]dioxol-5-yl}-1-[4-(2-ethoxy-phenyl)-piperazin-1-yl]-ethanone]
Modulation of Drug Resistance (percentage increase in doxorubicin cytotoxicity in the presence of the compounds versus in their absence) [1]: 19.2%
% Inhibition of R123 Transport (P-glycoprotein; [2]): 67.09%

COc1ccc(C2c3cc(OC)c(OC)cc3C(CC(=O)N3CCC(Cc4ccccc4)CC3)C2C(=O)N2CCC(Cc3ccccc3)CC2)cc1OC (stereo not shown) [AV-159, 2-[2-(4-benzylpiperidine-1-carbonyl)-3-(3,4-dimethoxyphenyl)-5,6-dimethoxy-indan-1-yl]-1-(4-benzylpiperidin-1-yl)-ethanone]
Modulation of Drug Resistance (percentage increase in doxorubicin cytotoxicity in the presence of the compounds versus in their absence) [1]: 56.06%
inhibition at 10 μM (P-glycoprotein; [3]): 81.4%

COc1ccc(C2c3cc(OC)c(OC)cc3C(CC(=O)N3CCN(c4ccccc4)CC3)C2C(=O)N2CCN(c3ccccc3)CC2)cc1OC (stereo not shown) [AV-161, 2-[3-(3,4-dimethoxyphenyl)-5,6-dimethoxy-2-(4-phenylpiperazin-1-carbonyl)-indan-1-yl]-1-(4-phenylpiperazin-1-yl)-ethanone]
Modulation of Drug Resistance (percentage increase in doxorubicin cytotoxicity in the presence of the compounds versus in their absence) [1]: 75.91%
inhibition at 10 μM (P-glycoprotein; [3]): 64.1%

COc1ccc(C2c3cc(OC)c(OC)cc3C(CCN3CCN(c4ccccc4)CC3)C2CN2CCN(c3ccccc3)CC2)cc1OC (stereo not shown) [AV-162, 2-[3-(3,4-dimethoxyphenyl)-5,6-dimethoxy-2-(4-phenylpiperazin-1-yl)methyl-indan-1-yl]-1-(4-phenylpiperazin-1-yl)-ethane]
Modulation of Drug Resistance (percentage increase in doxorubicin cytotoxicity in the presence of the compounds versus in their absence) [1]: 65.83%
inhibition at 10 μM (P-glycoprotein; [3]): 83.1%

COc1ccc(C2c3cc(OC)c(OC)cc3C(CC(=O)N3CCN(c4ccc(C(C)=O)cc4)CC3)C2C(=O)N2CCN(c3ccc(C(C)=O)cc3)CC2)cc1OC (stereo not shown) [AV-163, 2-[2-[4-(4-acetylphenyl)-piperazin-1-carbonyl]-3-(3,4-dimethoxyphenyl)-5,6-dimethoxy-indan-1-yl]-1[4-(4-acetylphenyl)piperazine-1-yl]-ethanone]
Modulation of Drug Resistance (percentage increase in doxorubicin cytotoxicity in the presence of the compounds versus in their absence) [1]: 72.55%
inhibition at 10 μM (P-glycoprotein; [3]): 89.7%

COc1ccc(C2c3cc(OC)c(OC)cc3C(CC(=O)N3CCN(Cc4ccccc4)CC3)C2C(=O)N2CCN(Cc3ccccc3)CC2)cc1OC (stereo not shown) [AV-164, 2-[2-(4-benzylpiperazine-1-carbonyl)-3-(3,4-dimethoxyphenyl)-5,6-dimethoxy-indan-1-yl]-1-(4-benzylpiperazine-1-yl)-ethanone]
Modulation of Drug Resistance (percentage increase in doxorubicin cytotoxicity in the presence of the compounds versus in their absence) [1]: 70.03%
inhibition at 10 μM (P-glycoprotein; [3]): 85.1%

COc1ccc(C2c3cc(OC)c(OC)cc3C(CC(=O)N3CCN(c4ccc(Cl)cc4)CC3)C2C(=O)N2CCN(c3ccc(Cl)cc3)CC2)cc1OC (stereo not shown) [AV-167, 2-[2-[4-(4-chlorophenyl)-piperazin-1 carbonyl]-3-(3,4-dimethoxyphenyl)-5,6-dimethoxy-indan-1-yl]-1-[4-(4-chlorophenyl)piperazine-1-yl]-ethanone]
Modulation of Drug Resistance (percentage increase in doxorubicin cytotoxicity in the presence of the compounds versus in their absence) [1]: 68.21%
inhibition at 10 μM (P-glycoprotein; [3]): 66.3%

COc1ccc(N2CCN(C(=O)CC3c4cc(OC)c(OC)cc4C(c4ccc(OC)c(OC)c4)C3C(=O)N3CCN(c4ccc(OC)cc4)CC3)CC2)cc1 (stereo not shown) [AV-168, 2-{3-(3,4-dimethoxyphenyl)-5,6-dimethoxy-2-[4-(4-methoxyphenyl)-piperazin-1-carbonyl]-indan-1-yl}-1-[4-(4-methoxyphenyl)-1-yl]-ethanone]
Modulation of Drug Resistance (percentage increase in doxorubicin cytotoxicity in the presence of the compounds versus in their absence) [1]: 73.81%
% Inhibition of R123 Transport (P-glycoprotein; [2]): 81.5%

COc1ccc(C2c3cc(OC)c(OC)cc3C(CC(=O)N3CCN(c4ccc(F)cc4)CC3)C2C(=O)N2CCN(c3ccc(F)cc3)CC2)cc1OC (stereo not shown) [AV-169, 2-{2-[4-(4-fluorophenyl)-piperazin-1-carbonyl]-3-(3,4-dimethoxyphenyl)-5,6-dimethoxy-indan-1-yl}-1-[4-(4-fluorophenyl)piperazine-1-yl]-ethanone]
Modulation of Drug Resistance (percentage increase in doxorubicin cytotoxicity in the presence of the compounds versus in their absence) [1]: 71.29%
inhibition at 10 μM (P-glycoprotein; [3]): 77.1%

CCOc1ccccc1N1CCN(C(=O)CC2c3cc(OC)c(OC)cc3C(c3ccc(OC)c(OC)c3)C2C(=O)N2CCN(c3ccccc3OCC)CC2)CC1 (stereo not shown) [AV-171, 2-{3-(3,4-dimethoxyphenyl)-5,6-dimethoxy-2-[4-(2-ethoxyphenyl)-piperazin-1-carbonyl]-indan-1-yl}-1-[4-(2-ethoxyphenyl)-1-yl]-ethanone]
Modulation of Drug Resistance (percentage increase in doxorubicin cytotoxicity in the presence of the compounds versus in their absence) [1]: 66.11%
% Inhibition of R123 Transport (P-glycoprotein; [2]): 92.9%

COc1ccc(C2c3cc(OC)c(OC)cc3C(CC(=O)N3CCN(CC=Cc4ccccc4)CC3)C2C(=O)N2CCN(CC=Cc3ccccc3)CC2)cc1OC (stereo not shown) [AV-172, 2-{3-(3,4-dimethoxyphenyl)-5,6-dimethoxy-2-[4-(3-phenylallyl)-piperazine-1-carbonyl]-indan-1-yl}-1-[4-(3-phenylallyl)piperazine-1-yl]-ethanone]
Modulation of Drug Resistance (percentage increase in doxorubicin cytotoxicity in the presence of the compounds versus in their absence) [1]: 68.57%
inhibition at 10 μM (P-glycoprotein; [3]): 86.7%

CCOC(=O)N1CCN(C(=O)CC2c3cc(OC)c(OC)cc3C(c3ccc(OC)c(OC)c3)C2C(=O)N2CCN(C(=O)OCC)CC2)CC1 (stereo not shown) [AV-174, 4-{2-[3-(3,4-dimethoxyphenyl)-5,6-dimethoxy-2-(piperazine-1-carboxylic acid ethyl ester)-indan-1-yl]-acetyl}-piperazine-1-carboxylic acid ethyl ester]
Modulation of Drug Resistance (percentage increase in doxorubicin cytotoxicity in the presence of the compounds versus in their absence) [1]: 18.50%
% Inhibition of R123 Transport (P-glycoprotein; [2]): 23.1%

COc1ccc(C2c3cc(OC)c(OC)cc3C(CCO[Si](c3ccccc3)(c3ccccc3)C(C)(C)C)C2CO)cc1OC (stereo not shown) [AV-175, [1-[2-t-butyldiphenyl-silanoxy)-ethyl-3-(3,4-dimethoxyphenyl)-5,6-dimethoxy-indan-2-yl]-methanol]
Modulation of Drug Resistance (percentage increase in doxorubicin cytotoxicity in the presence of the compounds versus in their absence) [1]: 52.50%
% Inhibition of R123 Transport (P-glycoprotein; [2]): 71.3%

COCC1C(CCO)c2cc(OC)c(OC)cc2C1c1ccc(OC)c(OC)c1 (stereo not shown) [AV-176, 2-[3-[3,4-dimethoxyphenyl)-5,6-dimethoxy-2-methoxymethyl-indan-1-yl]-ethanol]
Modulation of Drug Resistance (percentage increase in doxorubicin cytotoxicity in the presence of the compounds versus in their absence) [1]: 8.65%
inhibition at 10 μM (P-glycoprotein; [3]): 11.5%

COCC1C(CCN2CCN(CC=Cc3ccccc3)CC2)c2cc(OC)c(OC)cc2C1c1ccc(OC)c(OC)c1 (stereo not shown) [AV-204, 1-{2-[3-(3,4-dimethoxyphenyl)-5,6-dimethoxy-2-methoxymethyl-indan-1-yl]-ethyl}-4-(3-phenylallyl)-piperazine]
Modulation of Drug Resistance (percentage increase in doxorubicin cytotoxicity in the presence of the compounds versus in their absence) [1]: 64.60%
